pEC50: −log10 of the molar value.
What was measured:
human FPR2 = biological target: T1, human FPR2 (Homo sapiens, UniProt P25090); test: FPR2 cyclic adenosine monophosphate (cAMP) assay; assay type: cell-based; conditions: CHO cells overexpressing human FPR2; forskolin 5 μM; inhibition of cAMP production; HTRF; read-out: hFPR2 cAMP2 EC50
T1 sequence (P25090 1-351): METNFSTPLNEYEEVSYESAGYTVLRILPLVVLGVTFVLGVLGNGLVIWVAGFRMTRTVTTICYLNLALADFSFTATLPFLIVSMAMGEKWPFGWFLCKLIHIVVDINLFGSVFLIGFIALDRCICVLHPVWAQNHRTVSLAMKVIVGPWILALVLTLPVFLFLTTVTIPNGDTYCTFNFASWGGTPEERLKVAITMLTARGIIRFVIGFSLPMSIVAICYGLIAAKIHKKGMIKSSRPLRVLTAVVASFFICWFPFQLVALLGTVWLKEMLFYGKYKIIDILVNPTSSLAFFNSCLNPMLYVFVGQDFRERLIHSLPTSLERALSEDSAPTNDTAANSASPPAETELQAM
Method in brief: (§1)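 Gi-coupled activity is read as suppression of forskolin-stimulated cAMP (10 μM final for FPR1, 5 μM final for FPR2; IBMX 200 μM final) in recombinant CHO cells, 30 min incubation at rt, HTRF detection.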

human FPR1 = biological target: T2, human FPR1 (Homo sapiens, UniProt P21462); test: FPR1 cyclic adenosine monophosphate (cAMP) assay; assay type: cell-based; conditions: CHO cells overexpressing human FPR1; forskolin 10 μM; inhibition of cAMP production; HTRF; read-out: hFPR1 cAMP2 EC50
T2 sequence (P21462 1-350): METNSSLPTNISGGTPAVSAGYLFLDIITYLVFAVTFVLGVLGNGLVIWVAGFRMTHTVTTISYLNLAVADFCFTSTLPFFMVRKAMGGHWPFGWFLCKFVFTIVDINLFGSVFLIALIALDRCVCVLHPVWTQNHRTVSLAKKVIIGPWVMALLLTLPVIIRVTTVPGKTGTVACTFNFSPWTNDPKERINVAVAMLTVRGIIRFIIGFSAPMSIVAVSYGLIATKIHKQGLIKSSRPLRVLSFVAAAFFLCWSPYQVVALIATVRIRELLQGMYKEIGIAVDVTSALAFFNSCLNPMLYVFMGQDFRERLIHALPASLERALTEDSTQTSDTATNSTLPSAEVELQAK
Method in brief: as §1

## COc1cc(F)c(-c2c(NC(=O)c3ccc(OC(F)F)cc3)c(=O)n(-c3nc(N4CCC(C)(O)C4)ccc3C(F)(F)F)n2C)c(F)c1 (centres unmarked) [Example 282, N-[5-(2,6-difluoro-4-methoxyphenyl)-2-[6-(3-hydroxy-3-methylpyrrolidin-1-yl)-3-(trifluoromethyl)pyridin-2-yl]-1-methyl-3-oxo-2,3-dihydro-1H-pyrazol-4-yl]-4-(difluoromethoxy)benzamide]
Human FPR2
  pEC50: 8.70
Human FPR1
  pEC50: 5.68

## COc1cc(F)c(-c2c(NC(=O)c3ccc(OC(F)F)cc3)c(=O)n(-c3nc(NCC4(O)CC4)ccc3C(F)(F)F)n2C)c(F)c1 [Example 283, N-[5-(2,6-difluoro-4-methoxyphenyl)-2-(6-{[(1-hydroxycyclopropyl)methyl]amino}-3-(trifluoromethyl)pyridin-2-yl)-1-methyl-3-oxo-2,3-dihydro-1H-pyrazol-4-yl]-4-(difluoromethoxy)benzamide]
Human FPR2
  pEC50: 9.00
Human FPR1
  pEC50: < 5.00

## COc1cc(F)c(-c2c(NC(=O)c3ccc(OC(F)F)cc3)c(=O)n(-c3nc(N4CCC(C)(O)C4)ccc3C(F)(F)F)n2C)c(F)c1 (centres unmarked) [Example 284, N-[5-(2,6-difluoro-4-methoxyphenyl)-2-[6-(3-hydroxy-3-methylpyrrolidin-1-yl)-3-(trifluoromethyl)pyridin-2-yl]-1-methyl-3-oxo-2,3-dihydro-1H-pyrazol-4-yl]-4-(difluoromethoxy)benzamide]
Human FPR2
  pEC50: 8.70
Human FPR1
  pEC50: 5.74

## COc1cc(F)c(-c2c(NC(=O)c3ccc(OC(F)F)cc3)c(=O)n(-c3nc(OCCO)ccc3C(F)(F)F)n2C)c(F)c1 [Example 285, N-[5-(2,6-difluoro-4-methoxyphenyl)-2-[6-(2-hydroxyethoxy)-3-(trifluoromethyl)pyridin-2-yl]-1-methyl-3-oxo-2,3-dihydro-1H-pyrazol-4-yl]-4-(difluoromethoxy)benzamide]
Human FPR2
  pEC50: 8.70
Human FPR1
  pEC50: < 5.00

## CCOc1ccc(C(F)(F)F)c(-n2c(=O)c(NC(=O)c3ccc(OC(F)F)cc3)c(-c3c(F)cc(OC)cc3F)n2C)n1 [Example 286, N-[5-(2,6-difluoro-4-methoxyphenyl)-2-[6-ethoxy-3-(trifluoromethyl)pyridin-2-yl]-1-methyl-3-oxo-2,3-dihydro-1H-pyrazol-4-yl]-4-(difluoromethoxy)benzamide]
Human FPR2
  pEC50: 8.52
Human FPR1
  pEC50: < 5.30

## COc1cc(F)c(-c2c(NC(=O)c3ccc(OC(F)F)cc3)c(=O)n(-c3nc(OCC4CC4)ccc3C(F)(F)F)n2C)c(F)c1 [Example 287, N-{2-[6-(cyclopropylmethoxy)-3-(trifluoromethyl)pyridin-2-yl]-5-(2,6-difluoro-4-methoxyphenyl)-1-methyl-3-oxo-2,3-dihydro-1H-pyrazol-4-yl}-4-(difluoromethoxy)benzamide]
Human FPR2
  pEC50: 7.89
Human FPR1
  pEC50: < 5.30

## COc1cc(F)c(-c2c(NC(=O)c3ccc(OC(F)F)cc3)c(=O)n(-c3nc(OCC(C)(C)O)ccc3C(F)(F)F)n2C)c(F)c1 [Example 288, N-[5-(2,6-difluoro-4-methoxyphenyl)-2-[6-(2-hydroxy-2-methylpropoxy)-3-(trifluoromethyl)pyridin-2-yl]-1-methyl-3-oxo-2,3-dihydro-1H-pyrazol-4-yl]-4-(difluoromethoxy)benzamide]
Human FPR2
  pEC50: 9.00
Human FPR1
  pEC50: < 5.00

## COC(=O)COc1ccc(C(F)(F)F)c(-n2c(=O)c(NC(=O)c3ccc(OC(F)F)cc3)c(-c3c(F)cc(OC)cc3F)n2C)n1 [Example 289, methyl 2-({6-[3-(2,6-difluoro-4-methoxyphenyl)-4-[4-(difluoromethoxy)benzamido]-2-methyl-5-oxo-2,5-dihydro-1H-pyrazol-1-yl]-5-(trifluoromethyl)pyridin-2-yl}oxy)acetate]
Human FPR2
  pEC50: 8.40
Human FPR1
  pEC50: < 5.00

## COc1cc(F)c(-c2c(NC(=O)c3ccc(OC(F)F)cc3)c(=O)n(-c3nc(NCC4(CO)CCC4)ccc3C(F)(F)F)n2C)c(F)c1 [Example 290, N-[5-(2,6-difluoro-4-methoxyphenyl)-2-[6-({[1-(hydroxymethyl)cyclobutyl]-methyl}amino)-3-(trifluoromethyl)pyridin-2-yl]-1-methyl-3-oxo-2,3-dihydro-1H-pyrazol-4-yl]-4-(difluoromethoxy)benzamide]
Human FPR2
  pEC50: 9.00
Human FPR1
  pEC50: < 5.00

## COc1cc(F)c(-c2c(NC(=O)c3ccc(OC(F)F)cc3)c(=O)n(-c3nc(C(C)(C)O)ccc3C#N)n2C)c(F)c1 [Example 291, N-{2-[3-cyano-6-(2-hydroxypropan-2-yl)pyridin-2-yl]-5-(2,6-difluoro-4-methoxyphenyl)-1-methyl-3-oxo-2,3-dihydro-1H-pyrazol-4-yl}-4-(difluoromethoxy)benzamide]
Human FPR2
  pEC50: 8.70
Human FPR1
  pEC50: < 5.00

## COc1cc(F)c(-c2c(NC(=O)c3ccc(OC(F)F)cc3)c(=O)n(-c3nc(N4CC[C@@H](CO)C4)ccc3C(F)(F)F)n2C)c(F)c1 [Example 292, N-[5-(2,6-difluoro-4-methoxyphenyl)-2-{6-[(3R)-3-(hydroxymethyl)pyrrolidin-1-yl]-3-(trifluoromethyl)pyridin-2-yl}-1-methyl-3-oxo-2,3-dihydro-1H-pyrazol-4-yl]-4-(difluoromethoxy)benzamide]
Human FPR2
  pEC50: 8.70
Human FPR1
  pEC50: 5.39

## COc1ccc(-c2c(NC(=O)c3ccc(OC(F)F)cc3)c(=O)n(-c3ncccc3C(F)(F)F)n2C)cc1F [Example 293, 4-(difluoromethoxy)-N-[5-(3-fluoro-4-methoxyphenyl)-1-methyl-3-oxo-2-[3-(trifluoromethyl)pyridin-2-yl]-2,3-dihydro-1H-pyrazol-4-yl]benzamide]
Human FPR2
  pEC50: 8.05
Human FPR1
  pEC50: 5.92

## COc1ccc(-c2c(NC(=O)c3ccc(OC(F)F)cc3)c(=O)n(-c3ncccc3Cl)n2C)cc1F [Example 294, N-[2-(3-chloropyridin-2-yl)-5-(3-fluoro-4-methoxyphenyl)-1-methyl-3-oxo-2,3-dihydro-1H-pyrazol-4-yl]-4-(difluoromethoxy)benzamide]
Human FPR2
  pEC50: 7.49
Human FPR1
  pEC50: 5.85

## COc1ccc(-c2c(NC(=O)c3ccc(OC(F)F)cc3)c(=O)n(-c3nc(Cl)ccc3C(F)(F)F)n2C)c(F)c1 [Example 295, N-{2-[6-chloro-3-(trifluoromethyl)pyridin-2-yl]-5-(2-fluoro-4-methoxyphenyl)-1-methyl-3-oxo-2,3-dihydro-1H-pyrazol-4-yl}-4-(difluoromethoxy)benzamide]
Human FPR2
  pEC50: 9.00
Human FPR1
  pEC50: 5.82

## COc1cc(O)c(-c2c(NC(=O)c3ccc(OC(F)F)cc3)c(=O)n(-c3nc(Cl)ccc3Cl)n2C)c(F)c1 [Example 296, N-[2-(3,6-dichloropyridin-2-yl)-5-(2-fluoro-6-hydroxy-4-methoxyphenyl)-1-methyl-3-oxo-2,3-dihydro-1H-pyrazol-4-yl]-4-(difluoromethoxy)benzamide]
Human FPR2
  pEC50: 7.48
Human FPR1
  pEC50: < 5.00

## COc1cc(F)c(-c2c(NC(=O)c3ccc(OC(F)F)cc3)c(=O)n(-c3nc(N4CCCC4=O)ccc3C(F)(F)F)n2C)c(F)c1 [Example 297, N-[5-(2,6-difluoro-4-methoxyphenyl)-1-methyl-3-oxo-2-[6-(2-oxopyrrolidin-1-yl)-3-(tifluoromethyl)pyridin-2-yl]-2,3-dihydro-1H-pyrazol-4-yl]-4-(difluoromethoxy)benzamide]
Human FPR2
  pEC50: 8.70
Human FPR1
  pEC50: 6.42

From US12577206B2 (BRISTOL-MYERS SQUIBB COMPANY, priority 2020, dated 2026)
